Laboratory results taken from patent US10246462B2, “Chemokine receptor modulators and uses thereof” (FLX Bio, Inc., priority 2016, dated 2019).
Structures can show the parent of a compound that is named as a salt.

Molecular target: CCR4 (Homo sapiens (Human), UniProt P51679)
Test: Calcium mobilization (Ca Flux) assay
Format: cell-based
Protocol: Calcium Mobilization Assay. Calcium mobilization experiments may be performed by labeling the human T-cell line CEM with […] dye (45 min at room temperature), washing with PBS, and re-suspending into flux buffer (HBSS with 1% FBS).

CCR4, sequence (P51679 whole entry): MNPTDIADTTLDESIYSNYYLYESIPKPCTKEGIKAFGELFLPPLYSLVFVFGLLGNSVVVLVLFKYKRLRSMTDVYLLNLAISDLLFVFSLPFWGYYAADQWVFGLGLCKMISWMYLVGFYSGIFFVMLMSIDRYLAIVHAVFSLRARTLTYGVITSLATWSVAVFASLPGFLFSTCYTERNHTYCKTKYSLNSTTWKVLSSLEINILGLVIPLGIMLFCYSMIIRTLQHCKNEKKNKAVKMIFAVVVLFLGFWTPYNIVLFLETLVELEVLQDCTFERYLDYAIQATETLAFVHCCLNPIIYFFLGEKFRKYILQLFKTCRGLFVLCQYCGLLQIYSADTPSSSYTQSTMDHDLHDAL

IC50 [nM]	Compound
< 100	Cc1nn([C@H](C)c2ccc(Cl)cc2Cl)c2nc(N3CC[C@H](N4CCC[C@H]4CCS(N)(=O)=O)[C@H](C)C3)cnc12 [Example 52, 2-((S)-1-((3R,4S)-1-(1-((R)-1-(2,4-Dichlorophenyl)ethyl)-3-methyl-1H-pyrazolo[3,4-b]pyrazin-6-yl)-3-methylpiperidin-4-yl)pyrrolidin-2-yl)ethane-1-sulfonamide hydrochloride]
100 to 500	Cc1nn([C@H](C)c2ccc(Cl)cc2Cl)c2nc(N3CC[C@@H](N4CCC[C@H]4CCS(N)(=O)=O)[C@@H](C)C3)cnc12 [Example 53, 2-((S)-1-((3S,4R)-1-(1-((R)-1-(2,4-Dichlorophenyl)ethyl)-3-methyl-1H-pyrazolo[3,4-b]pyrazin-6-yl)-3-methylpiperidin-4-yl)pyrrolidin-2-yl)ethane-1-sulfonamide hydrochloride]
> 500	Cc1nn([C@H](C)c2ccc(Cl)cc2Cl)c2nc(N3CCC(N4CCC[C@H]4CC(F)(F)C(=O)O)C(C)C3)cnc12 (stereo partly drawn) [Example 58, 3-((2S)-1-(1-(1-((R)-1-(2,4-Dichlorophenyl)ethyl)-3-methyl-1H-pyrazolo[3,4-b]pyrazin-6-yl)-3-methylpiperidin-4-yl)pyrrolidin-2-yl)-2,2-difluoropropanoic acid 2,2,2-trifluoroacetate]
100 to 500	Cc1nn([C@H](C)c2ccc(Cl)cc2Cl)c2nc(N3CCC(N4CCC[C@H]4CC(O)C(=O)O)C(C)C3)cnc12 (stereo partly drawn) [Example 59, 3-((2S)-1-(1-(1-((R)-1-(2,4-Dichlorophenyl)ethyl)-3-methyl-1H-pyrazolo[3,4-b]pyrazin-6-yl)-3-methylpiperidin-4-yl)pyrrolidin-2-yl)-2-hydroxypropanoic acid 2,2,2-trifluoroacetate]
100 to 500	Cc1nn([C@H](C)c2ccc(Cl)cc2Cl)c2nc(N3CCC(N4CCC[C@H]4C(C)CC(=O)O)C(C)C3)cnc12 (stereo partly drawn) [Example 60, 3-((2S)-1-(1-(1-((R)-1-(2,4-Dichlorophenyl)ethyl)-3-methyl-1H-pyrazolo[3,4-b]pyrazin-6-yl)-3-methylpiperidin-4-yl)pyrrolidin-2-yl)butanoic acid 2,2,2-trifluoroacetate]
100 to 500	Cc1nn([C@H](C)c2ccc(Cl)cc2Cl)c2nc(N3CCC(N4CCC(F)CC4)C(C)C3)cnc12 (stereo partly drawn) [Example 61, 1-((R)-1-(2,4-Dichlorophenyl)ethyl)-6-(4-fluoro-3′-methyl-[1,4′-bipiperidin]-1′-yl)-3-methyl-1H-pyrazolo[3,4-b]pyrazine hydrochloride]
100 to 500	C[C@H](c1ccc(Cl)cc1Cl)n1nc(C#N)c2ncc(N3CCC(N4CCCC(CO)C4)CC3)nc21 (stereo partly drawn) [Example 62, 1-((R)-1-(2,4-Dichlorophenyl)ethyl)-6-(3-(hydroxymethyl)-[1,4′-bipiperidin]-1′-yl)-1H-pyrazolo[3,4-b]pyrazine-3-carbonitrile hydrochloride]
100 to 500	Cc1nn([C@H](C)c2ccc(Cl)cc2Cl)c2nc(N3CC[C@H](N4CCC[C@H]4CO)[C@H](C(N)=O)C3)cnc12 [Example 63, (3R,4S)-1-(1-((R)-1-(2,4-Dichlorophenyl)ethyl)-3-methyl-1H-pyrazolo[3,4-b]pyrazin-6-yl)-4-((S)-2-(hydroxymethyl)pyrrolidin-1-yl)piperidine-3-carboxamide hydrochloride]
> 500	C[C@H](c1ccc(Cl)cc1Cl)n1nc(C#N)c2ncc(N3CC[C@H](N4CCC[C@H]4C(=O)O)[C@H](C(C)(C)O)C3)nc21 [Example 64, ((3R,4S)-1-(3-Cyano-1-((R)-1-(2,4-dichlorophenyl)ethyl)-1H-pyrazolo[3,4-b]pyrazin-6-yl)-3-(2-hydroxypropan-2-yl)piperidin-4-yl)-L-proline hydrochloride]
100 to 500	Cc1nn([C@H](C)c2ccc(Cl)cc2Cl)c2nc(N3CC[C@H](N4CCC[C@@H](CC(=O)O)C4)[C@H](CO)C3)cnc12 [Example 65, 2-((3S,3′R,4′S)-1′-(1-((R)-1-(2,4-Dichlorophenyl)ethyl)-3-methyl-1H-pyrazolo[3,4-b]pyrazin-6-yl)-3′-(hydroxymethyl)-[1,4′-bipiperidin]-3-yl)acetic acid hydrochloride]
100 to 500	Cc1nn([C@H](C)c2ccc(Cl)cc2Cl)c2nc(N3CCC(C4CCCNC4)C(C)C3)cnc12 (stereo partly drawn) [Example 66, 1-((R)-1-(2,4-Dichlorophenyl)ethyl)-3-methyl-6-(3′-methyl-[3,4′-bipiperidin]-1′-yl)-1H-pyrazolo[3,4-b]pyrazine hydrochloride]
100 to 500	Cc1nn([C@H](C)c2ccc(Cl)cc2Cl)c2nc(N3CCC(C4CCCN(CCC(=O)O)C4)C(C)C3)cnc12 (stereo partly drawn) [Example 67, 3-(1′-(1-((R)-1-(2,4-Dichlorophenyl)ethyl)-3-methyl-1H-pyrazolo[3,4-b]pyrazin-6-yl)-3′-methyl-[3,4′-bipiperidin]-1-yl)propanoic acid hydrochloride]
100 to 500	Cc1nn([C@H](C)c2ccc(Cl)cc2Cl)c2nc(C3=CCC(N4CCC[C@H]4CO)CC3)cnc12 (stereo partly drawn) [Example 68, ((2S)-1-(4-(1-((R)-1-(2,4-Dichlorophenyl)ethyl)-3-methyl-1H-pyrazolo[3,4-b]pyrazin-6-yl)cyclohex-3-en-1-yl)pyrrolidin-2-yl)methanol]
100 to 500	C[C@@H]1C=C(c2cnc3c(C#N)nn([C@H](C)c4ccc(Cl)cc4Cl)c3n2)CC[C@@H]1N1CCC[C@H]1CO [Example 69, 1-((R)-1-(2,4-Dichlorophenyl)ethyl)-6-((3R,4S)-4-((S)-2-(hydroxymethyl)pyrrolidin-1-yl)-3-methylcyclohex-1-en-1-yl)-1H-pyrazolo[3,4-b]pyrazine-3-carbonitrile hydrochloride]
100 to 500	Cc1nn([C@H](C)c2ccc(Cl)cc2Cl)c2nc(C3=CCC(N4CCC[C@H]4C(=O)O)C(C)C3)cnc12 (stereo partly drawn) [Example 70, (4-(1-((R)-1-(2,4-Dichlorophenyl)ethyl)-3-methyl-1H-pyrazolo[3,4-b]pyrazin-6-yl)-6-methylcyclohex-3-en-1-yl)-L-proline trifluoroacetate]
< 100	Cc1nn([C@H](C)c2ccc(Cl)cc2Cl)c2nc(C3=CC[C@H](N4CCC[C@H]4CCC(=O)O)[C@H](C)C3)cnc12 [Example 71, 3-((S)-1-((1S,6R)-4-(1-((R)-1-(2,4-Dichlorophenyl)ethyl)-3-methyl-1H-pyrazolo[3,4-b]pyrazin-6-yl)-6-methylcyclohex-3-en-1-yl)pyrrolidin-2-yl)propanoic acid hydrochloride]
100 to 500	CC1C=C(c2cnc3c(C#N)nn([C@H](C)c4ccc(Cl)cc4Cl)c3n2)CCC1N1CCC[C@H]1CCC(=O)O (stereo partly drawn) [Example 73, 3-((2S)-1-(4-(3-Cyano-1-((R)-1-(2,4-dichlorophenyl)ethyl)-1H-pyrazolo[3,4-b]pyrazin-6-yl)-2-methylcyclohex-3-en-1-yl)pyrrolidin-2-yl)propanoic acid 2,2,2-trifluoroacetate]
100 to 500	C[C@H](c1ccc(Cl)cc1Cl)n1nc(C#N)c2ncc(C3=CC[C@@H](N4CCC[C@H]4CO)[C@@H](C)C3)nc21 [Example 75, 1-((R)-1-(2,4-Dichlorophenyl)ethyl)-6-((4R,5S)-4-((S)-2-(hydroxymethyl)pyrrolidin-1-yl)-5-methylcyclohex-1-en-1-yl)-1H-pyrazolo[3,4-b]pyrazine-3-carbonitrile]
< 100	C[C@@H]1CC(c2cnc3c(C#N)nn([C@H](C)c4ccc(Cl)cc4Cl)c3n2)=CC[C@@H]1N1CCC[C@H]1CO [Example 76, 1-((R)-1-(2,4-Dichlorophenyl)ethyl)-6-((4S,5R)-4-((S)-2-(hydroxymethyl)pyrrolidin-1-yl)-5-methylcyclohex-1-en-1-yl)-1H-pyrazolo[3,4-b]pyrazine-3-carbonitrile]
< 100	Cc1nn([C@H](C)c2ccc(Cl)cc2Cl)c2nc(C3=CCC(N4CCC[C@H]4CCC(N)=O)[C@H](C)C3)cnc12 (stereo partly drawn) [Example 77, 3-((S)-1-((1S,6R)-4-(1-((R)-1-(2,4-Dichlorophenyl)ethyl)-3-methyl-1H-pyrazolo[3,4-b]pyrazin-6-yl)-6-methylcyclohex-3-en-1-yl)pyrrolidin-2-yl)propanamide 2,2,2-trifluoroacetae]
< 100	Cc1nn([C@H](C)c2ccc(Cl)cc2Cl)c2nc(C3=CCC(N4CCC[C@H]4CO)C(C)C3)cnc12 (stereo partly drawn) [Example 78, ((2S)-1-(4-(1-((R)-1-(2,4-Dichlorophenyl)ethyl)-3-methyl-1H-pyrazolo[3,4-b]pyrazin-6-yl)-6-methylcyclohex-3-en-1-yl)pyrrolidin-2-yl)methanol]
100 to 500	C[C@@H]1CC(c2cnc3c(C#N)nn([C@H](C)c4ccc(Cl)cc4Cl)c3n2)=CC[C@@H]1N1CCC[C@H]1CN [Example 81, 6-((4S,5R)-4-((S)-2-(Aminomethyl)pyrrolidin-1-yl)-5-methylcyclohex-1-en-1-yl)-1-((R)-1-(2,4-dichlorophenyl)ethyl)-1H-pyrazolo[3,4-b]pyrazine-3-carbonitrile hydrochloride]
100 to 500	C[C@@H]1CC(c2cnc3c(C#N)nn([C@H](C)c4ccc(Cl)cc4Cl)c3n2)=CC[C@@H]1N1CCC[C@H]1CNS(C)(=O)=O [Example 82, N—(((S)-1-((1S,6R)-4-(3-Cyano-1-((R)-1-(2,4-dichlorophenyl)ethyl)-1H-pyrazolo[3,4-b]pyrazin-6-yl)-6-methylcyclohex-3-en-1-yl)pyrrolidin-2-yl)methyl)methanesulfonamide hydrochloride]
< 100	C[C@@H]1CC(c2cnc3c(C#N)nn([C@H](C)c4ccc(Cl)cc4Cl)c3n2)=CCC1N1CCC[C@H]1C (some centres unmarked) [Example 83]

Compound	IC50 [nM]
CC1CC(c2cnc3c(C#N)nn([C@H](C)c4ccc(Cl)cc4Cl)c3n2)=CCC1N1CCC[C@H]1C(N)=O (stereo partly drawn) [Example 79, (2S)-1-(4-(3-Cyano-1-((R)-1-(2,4-dichlorophenyl)ethyl)-1H-pyrazolo[3,4-b]pyrazin-6-yl)-6-methylcyclohex-3-en-1-yl)pyrrolidine-2-carboxamide hydrochloride]	< 100
C[C@H](c1ccc(Cl)cc1Cl)n1nc(C#N)c2ncc(C3=CC[C@@H](N4CCC[C@H]4C(N)=O)[C@@H](C)C3)nc21 [Example 80, (S)-1-((1R,6S)-4-(3-Cyano-1-((R)-1-(2,4-dichlorophenyl)ethyl)-1H-pyrazolo[3,4-b]pyrazin-6-yl)-6-methylcyclohex-3-en-1-yl)pyrrolidine-2-carboxamide hydrochloride]	100 to 500
